“Also recorded” adds a separate entry of the source. Counter-ions that a name gives are not always drawn. Like-named read-outs stand apart in the source and are kept apart here.
Key:
[1] = cited from earlier work
[2] = Ex vivo exposure of coated ureteral stent to a pig ureter
From the text: (§1) An approximately 0.6% solution of bupivacaine having a tertiary amine in the non-ionic form (formula (2a) above) in dichloromethane was loaded into a syringe mounted onto a syringe pump and connected to a tube that carried the solution to an ultrasonic nozzle (Model 06-05108—Sono-Tek Co., Poughkeepsie, N.Y. 12547.) A nozzle was 6 mm diameter, 11 mm long and used with a nominal frequency of 120 kHz. Air was purged from the solution line and the spray nozzle primed with the solution. The coating chamber was purged with nitrogen to attain an oxygen concentration below 100 ppm. The solution was sprayed onto ureteral stent substrates 20 to 280 mm long (polyurethane double pigtail soflex ureteral stent, Cook Incorporated (Bloomington, Ind.)). A smooth, uniform coating was observed. Control stents were coated with the same concentration of Bupivacaine.HCl using the above coating method.
(§2) FIGS. 4-7 depict photomicrographs of the coatings showing the uniformity and tenacity of the non-ionic coatings, in contrast to the water-soluble ionic coatings. […] FIG. 5 depicts a relatively rough, crystalline coating 91 of Bupivacaine.HCl on a ureteral stent 90, on the left, and the same stent after a one-minute ex vivo exposure to a pig ureter.
(§3) FIG. 7 then depicts the same type of stent 110 with a coating 114 of the non-ionic form of bupivacaine after 24 hours in an ex vivo test with a pig ureter.

[3] = Elution of bupivacaine from spray-coated ureteral stents in aqueous buffers of different pH; assay type: physicochemical
From the text: as §1
The stents were placed in solutions at different pH values to test the elution of bupivacaine over time. […] Acetic acid/sodium acetate was used for the pH 4.5 buffer, 0.1 M phosphate-buffered solution (PBS) for the pH 7.0 buffer, and sodium carbonate for the pH 9.5 buffer.

[4] = Exposure of coated ureteral stent to water / aqueous environment (photomicrographs of coating); assay type: physicochemical
From the text: as §1, §2, §3

[5] = Table 1, anesthetics having protonated and unprotonated forms; cited from earlier work

Row | state of stent coating after dipping in water ([4]; dipped in water for one minute (FIG. 4)) | period over which release from ureteral stent occurs ([3]; coated polyurethane ureteral stent, solutions of pH 4.5, 7.0 and 9.5) | dependence of release rate on pH of the eluting solution ([3]; pH 4.5, 7.0, 9.5) | state of stent coating after exposure to aqueous environment ([4]; aqueous environment for several days (FIG. 6)) | SMILES | solubility in water (words) ([1]; hydrochloride) | solubility in water (words) ([1]; listed as bupivacaine hydrochloride, hydrochloride) | state of stent coating after ex vivo exposure to pig ureter ([2]; one-minute ex vivo exposure (FIG. 5)) | time of release/elution from coated stent ([3]; control stents coated with ionic form, aqueous solutions, same conditions, hydrochloride) | solubility ([1]; base or non-ionic form) | solubility in water (words) [1] | solubility in water (words) ([1]; listed as Bupivacaine) | state of stent coating after ex vivo test with pig ureter ([2]; 24 hours ex vivo (FIG. 7)) | pKa [5]
1 | coating is substantially dissolved |  |  |  | CCCCN1CCCCC1C(=O)Nc1c(C)cccc1C (centres unmarked) [Bupivacaine.HCl, 1-butyl-N-(2,6-dimethylphenyl)-2-piperidinecarboxamide hydrochloride] | water-soluble | soluble in water | Most of the coating 92 has been dissolved | within a matter of minutes; also recorded: eluted fully within minutes |  |  |  |  | 
2 |  | about 12 days | approximately the same rate | virtually no effect on the coating | CCCCN1CCCCC1C(=O)Nc1c(C)cccc1C (centres unmarked) [bupivacaine] |  |  |  |  | about 0.2 mg/mL | only very slightly soluble in water | sparingly soluble in water | most of the non-ionic form of the bupivacaine coating remains on the stent | 8.09
3 |  |  |  |  | CCCN1CCCC[C@H]1C(=O)Nc1c(C)cccc1C [ropivacaine] |  |  |  |  |  |  |  |  | 8.16

Reference: patent publication US20080081829A1, “Medical Device Including an Anesthetic and Method of Preparation Thereof” (MED Institute, Inc, priority 2006, published 2008)
